Experimental data taken from patent US6506766B1 (Abbott Laboratories, priority 1998, dated 2003).

What was measured:
[1] = molecular target: T1, human glucocorticoid receptor-α [GRX] isoform (Homo sapiens, UniProt P04150); assay: Radioligand binding with human glucocorticoid receptor cytosol ([3H]-dexamethasone competition); conditions: GRX cytosol expressed in insect SF21 cells, [3H]-Dex ~0.9 nM, 4° C. overnight; Ki by Cheng-Prusoff, KL ~[…]; read-out: Ki (nM) GR
T1 construct: host or cells: insect SF21 cells (baculovirus)
T1 sequence (P04150 1-777): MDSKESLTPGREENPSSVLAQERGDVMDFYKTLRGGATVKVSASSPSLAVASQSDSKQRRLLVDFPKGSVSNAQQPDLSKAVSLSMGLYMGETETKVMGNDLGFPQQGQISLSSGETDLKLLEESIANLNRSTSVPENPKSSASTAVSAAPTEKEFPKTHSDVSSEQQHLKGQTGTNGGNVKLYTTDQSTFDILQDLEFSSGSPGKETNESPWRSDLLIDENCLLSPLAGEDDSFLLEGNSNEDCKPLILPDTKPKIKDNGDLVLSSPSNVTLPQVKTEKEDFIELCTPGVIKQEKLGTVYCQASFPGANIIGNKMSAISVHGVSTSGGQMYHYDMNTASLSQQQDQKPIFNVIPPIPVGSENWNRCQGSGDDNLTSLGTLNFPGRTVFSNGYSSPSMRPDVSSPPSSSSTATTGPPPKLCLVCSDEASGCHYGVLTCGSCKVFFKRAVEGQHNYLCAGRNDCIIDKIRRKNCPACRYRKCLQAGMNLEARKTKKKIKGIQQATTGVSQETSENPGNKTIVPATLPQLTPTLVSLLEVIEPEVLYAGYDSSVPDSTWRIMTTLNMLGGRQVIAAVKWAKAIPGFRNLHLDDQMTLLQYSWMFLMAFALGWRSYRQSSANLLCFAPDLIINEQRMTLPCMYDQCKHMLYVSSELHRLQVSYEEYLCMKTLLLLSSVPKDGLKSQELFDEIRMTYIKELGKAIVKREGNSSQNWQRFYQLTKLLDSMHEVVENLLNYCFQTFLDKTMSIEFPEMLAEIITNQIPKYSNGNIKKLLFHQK

[2] = molecular target: T2, human progesterone receptor-A [PRA] isoform (Homo sapiens, UniProt P06401); assay: Radioligand binding with human progesterone receptor cytosol ([3H]-progesterone competition); conditions: PRA cytosol expressed in insect SF21 cells, [3H]Prog ~0.8 nM, 4° C. overnight; Ki by Cheng-Prusoff, KL ~4.5 nM; read-out: Ki (nM) PR
T2 construct: host or cells: insect SF21 cells (baculovirus)
T2 sequence (P06401 1-769 isoform P06401-2): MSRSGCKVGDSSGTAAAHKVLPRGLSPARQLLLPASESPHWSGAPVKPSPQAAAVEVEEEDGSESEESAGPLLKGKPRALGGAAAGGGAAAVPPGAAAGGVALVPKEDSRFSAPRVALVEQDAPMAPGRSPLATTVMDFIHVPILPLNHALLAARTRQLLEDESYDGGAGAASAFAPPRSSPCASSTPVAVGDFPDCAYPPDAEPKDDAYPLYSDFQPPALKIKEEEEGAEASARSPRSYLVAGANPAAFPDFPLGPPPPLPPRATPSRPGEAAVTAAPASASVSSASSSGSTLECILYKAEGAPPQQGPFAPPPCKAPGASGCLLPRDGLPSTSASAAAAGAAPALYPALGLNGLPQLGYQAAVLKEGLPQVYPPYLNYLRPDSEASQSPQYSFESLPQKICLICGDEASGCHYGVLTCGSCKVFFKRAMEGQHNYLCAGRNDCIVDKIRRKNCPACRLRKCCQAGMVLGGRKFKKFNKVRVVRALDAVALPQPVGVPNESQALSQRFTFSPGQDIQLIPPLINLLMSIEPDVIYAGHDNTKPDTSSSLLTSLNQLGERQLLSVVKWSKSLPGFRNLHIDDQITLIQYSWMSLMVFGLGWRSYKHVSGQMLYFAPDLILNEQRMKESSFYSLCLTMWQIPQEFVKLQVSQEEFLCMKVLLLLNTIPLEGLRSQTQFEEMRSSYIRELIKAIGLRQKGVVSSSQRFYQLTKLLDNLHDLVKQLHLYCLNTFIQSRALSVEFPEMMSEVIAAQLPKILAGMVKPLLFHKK

Row | Structure (SMILES) | Ki [1] [nM] | Ki [2] [nM]
1 | COc1c(O)ccc2c1-c1ccc3c(c1[C@H]([C@H]1C=C(C)CCC1)O2)C(C)=CC(C)(C)N3 (racemic) [Example 243, (+/−)(5S,3′R)2,5-Dihydro-9-hydroxy-10-methoxy-2,2,4-trimethyl-5-(1-methylcyclohexen-3-yl)-1H-[1]benzopyrano[3,4-f]quinoline] | 1.6 | 21.2
2 | COc1c(O)ccc2c1-c1ccc3c(c1C(c1c(F)c(F)c(F)c(F)c1F)O2)C(C)=CC(C)(C)N3 (racemic) [Example 269, (±)2,5-Dihydro-9-hydroxy-10-methoxy-2,2,4-trimethyl-5-(2,3,4,5,6-pentafluorophenyl)-1H-[1]benzopyrano[3,4-f]quinoline] | 17.1 | 2470
3 | COC(=O)C1=C[C@@H]([C@@H]2Oc3ccc(O)c(OC)c3-c3ccc4c(c32)C(C)=CC(C)(C)N4)CC1 (racemic) [Example 271, (+/−)2,5-Dihydro-9-hydroxy-10-methoxy-2,2,4-trimethyl-5(S)-(3(S)-1-methylcarboxylatecyclopenten-3-yl)-1H-[1]benzopyrano[3,4-f]quinoline] | 0.82 | 2290
4 | COc1c(O)ccc2c1-c1ccc3c(c1C(c1ccccc1C)O2)C(C)=CC(C)(C)N3 (racemic) [Example 275, (±)2,5-Dihydro-9-hydroxy-10-methoxy-2,2,4-trimethyl-5-(2-methylphenyl)-1H-[1]benzopyrano[3,4-f]quinoline] | 11.7 | 2870
5 | COc1c(C)ccc2c1-c1ccc3c(c1C(C1C=C(C)CCC1)O2)C(C)=CC(C)(C)N3 (racemic) [Example 307, (+/−)2,5-Dihydro-9-methyl-10-methoxy-2,2,4-trimethyl-5-(1-methylcyclohexen-3-yl)-1H-[1]benzopyrano[3,4-f]quinoline] | 4.6 | 27.8
6 | CC1=CC(C)(C)Nc2ccc3c(c21)C(c1ccccc1)Oc1cccc(Cl)c1-3 (racemic) [Example 310, (+/−)2,5-Dihydro-10-chloro-2,2,4-trimethyl-5-phenyl-1H-[1]benzopyrano[3,4-f]quinoline] | 4.4 | 382
7 | C=CCC1Oc2ccc(OC(=O)CCCNC(C)=O)c(OC)c2-c2ccc3c(c21)C(C)=CC(C)(C)N3 (racemic) [Example 344, (+/−)2,5-Dihydro-9-(4-acetamidobutanoyloxy)-10-methoxy-2,2,4-trimethyl-5-allyl-1H-[1]benzopyranol[3,4-f]quinoline] | 0.46 | 76.7
8 | C=CCC1Oc2ccc(OCC#N)c(OC)c2-c2ccc3c(c21)C(C)=CC(C)(C)N3 (racemic) [Example 377, (+/−)2,5-Dihydro-9-cyanomethoxy-10-methoxy-2,2,4-trimethyl-5-allyl-1H-[1]benzopyrano[3,4-f]quinoline] | 51 | 3080
9 | C=CCC1Oc2ccc(OC(=O)CCNC(C)=O)c(OC)c2-c2ccc3c(c21)C(C)=CC(C)(C)N3 (racemic) [Example 428, (+/−)2,5-Dihydro-9-(3-acetamido-propanoyloxy)-10-methoxy-2,2,4-trimethyl-5-allyl-1H-[1]benzopyrano[3,4-f]quinoline] | 0.91 | 204
10 | CC1=CC(C)(C)Nc2ccc3c(c21)C(Cc1ccccc1)Oc1ccc(O)c(Cl)c1-3 (racemic) [Example 429, (+/−)2,5-Dihydro-9-hydroxy-10-chloro-2,2,4-trimethyl-5-benzyl-1H-[1]benzopyrano[3,4-f]quinoline] | 4.1 | 29.1
11 | C=CCC1Oc2ccc(OC(=O)CNC(N)=O)c(OC)c2-c2ccc3c(c21)C(C)=CC(C)(C)N3 (racemic) [Example 432, (+/−)2,5-Dihydro-9-(N-carbamoyl-2-aminoacetoxy)-10-methoxy-2,2,4-trimethyl-5-allyl-1H-[1]benzopyrano[3,4-f]quinoline] | 1.4 | 207
12 | C=CCC1Oc2ccc(OCCCC(=O)OCC)c(OC)c2-c2ccc3c(c21)C(C)=CC(C)(C)N3 (racemic) [Example 433, (+/−)2,5-Dihydro-9-(4-ethoxy-4-oxo-butoxy)-10-methoxy-2,2,4-trimethyl-5-allyl-1H-[1]benzopyrano[3,4-f]quinoline] | 30.2 | 1410
13 | C=CCC1Oc2ccc(OC(=O)CCC(C)=O)c(OC)c2-c2ccc3c(c21)C(C)=CC(C)(C)N3 (racemic) [Example 434, (+/−)2,5-Dihydro-9-(4-oxo-pentanoyloxy)-10-methoxy-2,2,4-trimethyl-5-allyl-1H-[1]benzopyrano[3,4-f]quinoline] | 0.96 | 123
14 | COc1cccc2c1-c1ccc3c(c1[C@H]([C@H]1C=C(CO)CCC1)O2)C(C)=CC(C)(C)N3 (relative stereo) [Example 148] | 2.8 | ≥ 10000
15 | COc1cccc2c1-c1ccc3c(c1[C@@H]([C@H]1C=C(CO)CCC1)O2)C(C)=CC(C)(C)N3 (relative stereo) [Example 149] | 2.7 | 4060
16 | COc1cccc2c1-c1ccc3c(c1[C@@H]([C@H]1C=C(CN(C)C)CCC1)O2)C(C)=CC(C)(C)N3 (relative stereo) [Example 165] | 14 | ≥ 10000
17 | COc1cccc2c1-c1ccc3c(c1[C@@H]([C@H]1C=C(CN(C)S(C)(=O)=O)CCC1)O2)C(C)=CC(C)(C)N3 (relative stereo) [Example 168, rel (5R, 3′R) 2,5-Dihydro-10-methoxy-5-(1-(N-methyl-N-methylsulfonylamino)methyl-3-cyclohexenyl)-2,2,4-trimethy-1H-[1]benzopyrano[3,4-f]quinoline] | 2.5 | ≥ 10000
18 | COc1c(O)ccc2c1-c1ccc3c(c1[C@H]([C@H]1C=C(CO)CCC1)O2)C(C)=CC(C)(C)N3 (relative stereo) [Example 242] | 0.53 | 3420
19 | COCC1=C[C@H]([C@@H]2Oc3ccc(O)c(OC)c3-c3ccc4c(c32)C(C)=CC(C)(C)N4)CCC1 (relative stereo) [Example 244, rel-(5S,3′R)-9-Hydroxy-5-[1-methoxymethyl-3-cyclohexenyl]-10-methoxy-2,2,4-trimethyl-2,5-dihydro-1H-[1]benzopyrano[3,4-f]quinoline] | 6.3 | 804
20 | COc1cccc2c1-c1ccc3c(c1C(c1ccccc1)O2)C(C)=CC(C)(C)N3 (single isomer, unassigned) [Example 25, (±)-2,5-Dihydro-10-methoxy-2,2,4-trimethyl-5-phenyl-1H-[1]benzopyrano-[3,4-f]quinoline] | 240 | ≥ 10000
21 | COc1cccc2c1-c1ccc3c(c1C(c1ccccc1)O2)C(C)=CC(C)(C)N3 (single isomer, unassigned) [Example 26, (±)-2,5-Dihydro-10-methoxy-2,2,4-trimethyl-5-phenyl-1H-[1]benzopyrano[3,4-f]quinoline] | 2.1 | 13400
22 | COc1cccc2c1-c1ccc3c(c1C(C1CCCCC1=O)O2)C(C)=CC(C)(C)N3 (single isomer, unassigned) [Example 142, 2,5-Dihydro-10-methoxy-5-(1-oxo-2-cyclohexyl)-2,2,4-trimethyl-1H-[1]benzopyrano[3,4-f]quinoline] | 51 | ≥ 10000
23 | COC(=O)C1=CC(C2Oc3ccc(O)c(OC)c3-c3ccc4c(c32)C(C)=CC(C)(C)N4)CCC1 (single isomer, unassigned) [Example 288] | 0.86 | 4080
24 | COC(=O)C1=CC(C2Oc3ccc(O)c(OC)c3-c3ccc4c(c32)C(C)=CC(C)(C)N4)CCC1 (single isomer, unassigned) [Example 415] | 9.9 | 3740
